Results: patent US11319289B2, “5-hydroxy pyridine-based compound for use as P2X1 and P2X3 receptor antagonist and pharmaceutical composition comprising same” (GWANGJU INSTITUTE OF SCIENCE AND TECHNOLOGY, priority 2017, dated 2022)
Read-outs that look alike come from different tables or passages of the source.

Assays:
Assay type in all cases: cell-based
[1] = biological target: T1, human P2X7 receptor (hP2X7) (Homo sapiens, UniProt Q99572); experiment: Ethidium bromide accumulation assay in hP2X7-expressing HEK293 cells; conditions: for hP2X7 % inhibition of ethidium bromide accumulation: 10 μM compound with BzATP
T1 construct: expressed in transfected cells
T1 sequence (Q99572 1-595): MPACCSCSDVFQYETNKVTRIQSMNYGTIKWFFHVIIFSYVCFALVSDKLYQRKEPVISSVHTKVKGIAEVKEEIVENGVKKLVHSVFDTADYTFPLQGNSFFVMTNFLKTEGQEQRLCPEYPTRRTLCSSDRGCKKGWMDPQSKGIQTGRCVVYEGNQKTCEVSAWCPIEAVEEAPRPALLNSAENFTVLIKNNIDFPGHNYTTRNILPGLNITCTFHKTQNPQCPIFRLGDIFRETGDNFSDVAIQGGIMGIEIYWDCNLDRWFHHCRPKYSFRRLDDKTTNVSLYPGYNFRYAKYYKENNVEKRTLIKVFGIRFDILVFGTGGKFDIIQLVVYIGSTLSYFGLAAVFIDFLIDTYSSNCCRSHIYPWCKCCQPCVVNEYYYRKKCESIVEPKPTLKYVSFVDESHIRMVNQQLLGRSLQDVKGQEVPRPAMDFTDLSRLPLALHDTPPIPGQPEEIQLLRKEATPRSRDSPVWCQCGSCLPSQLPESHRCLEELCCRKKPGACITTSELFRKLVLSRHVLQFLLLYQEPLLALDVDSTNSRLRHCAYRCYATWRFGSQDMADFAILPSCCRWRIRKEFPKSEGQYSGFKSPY
Protocol: 1-2. Ethidium Bromide Accumulation Assay in hP2X-Expressing HEK293 Cells
HEK293 cells that are stably transfected with the human P2X7 receptor (P2X7R) were kept under a humidified atmosphere of 5% CO2 at 37° C. in DMEM supplemented with 10% (v/v) FBS, 2 mM L-glutamine and antibiotics (50 U/mL penicillin and 50 μg/ml streptomycin). BzATP-induced pore formation was measured using a fluorescence plate reader by measuring cellular absorption of ethidium in the hP2X7-expressing HEK293 cells. The hP2X7-expressing HEK293 cells were washed once with an appropriate assay buffer, and the buffer was also removed before subsequent analysis. All studies were performed at room temperature and the final assay volume was 100 μL. The cells were resuspended at 2.5×10^6 cells/mL in assay buffers consisting of 10 mM HEPES, 5 mM N-methyl-D-glucamine, 5.6 mM KCl, 10 mM D-glucose and 0.5 mM CaCl2 (pH 7.4) and supplemented with 280 mM sucrose or 140 mM NaCl.
In order to determine the antagonistic activity of the 5-hydroxyl-pyridine derivatives of the present invention and the reference compound (AZD9056), these compounds were added to the cells at a concentration of 10 μM with BzATP without pre-incubation. The cells were incubated for 2 hours under a humidified atmosphere of 5% CO2 at 37° C., and the absorption of ethidium dye was observed by measuring fluorescence with a Bio-Tek instrument FL600 fluorescent plate reader (excitation wavelength of 530 nm and emission wavelength of 590 nm). The results are expressed as a percentage relative to the maximum cumulative amount of ethidium bromide when stimulated with BzATP alone.
(§1) In order to investigate the structure-activity relationship (SAR) of the compounds synthesized in the present invention, the antagonistic activity was evaluated by a two-electrode voltage clamp (TEVC) assay in Xenopus oocytes expressing the recombinant mP2X1 or hP2X3, respectively. The hP2X7R antagonistic activity was assessed using an ethidium ion accumulation assay in human HEK293 cells stably expressing the recombinant human P2X7R.

[2] = biological target: T2, mouse P2X1 receptor (mP2X1) (Mus musculus, UniProt P51576); experiment: Two-electrode voltage clamp assay, recombinant mP2X1 receptor in Xenopus oocytes; conditions: for inhibition at 10 µM / mP2X1 % inhibitory effect at 10 μM: 10 μM compound, mean±SEM n≥3 (footnote c); for inhibition at 10 µM: read-out: mP2X1 % inhibitory effect at 10 μM
T2 construct: expressed in transfected cells; host or cells: Xenopus oocytes (cRNA microinjection)
T2 sequence (P51576 1-399): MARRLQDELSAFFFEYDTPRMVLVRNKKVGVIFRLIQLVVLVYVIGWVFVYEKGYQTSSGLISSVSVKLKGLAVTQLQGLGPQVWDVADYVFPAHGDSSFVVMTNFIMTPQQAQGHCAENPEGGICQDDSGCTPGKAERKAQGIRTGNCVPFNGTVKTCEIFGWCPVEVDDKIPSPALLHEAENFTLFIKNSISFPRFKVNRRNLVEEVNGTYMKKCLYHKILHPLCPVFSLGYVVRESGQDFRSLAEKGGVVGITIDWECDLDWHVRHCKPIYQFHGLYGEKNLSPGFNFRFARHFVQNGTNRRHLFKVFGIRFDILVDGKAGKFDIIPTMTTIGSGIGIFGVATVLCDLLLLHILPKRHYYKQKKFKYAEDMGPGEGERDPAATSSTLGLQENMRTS
Protocol: (§2) 1-1. Two-Electrode Voltage Clamp Assay for Recombinant mP2X1 and hP2X3 Receptors
(§3) Xenopus oocytes were isolated and incubated with 270 U/mg of collagenase at 23 to 24° C. for 1.5 hours. Defolliculated oocytes were kept in Barth's solution at 18° C. After 1 day, the defolliculated oocytes were each microinjected cytosolically with mP2X1 and human P2X3 receptor cRNA ([…], 1 μg/mL), incubated for 24 hours at 18° C. in Barth's solution. The cRNA-injected oocytes were kept for 12 days at 4° C. ATP-activated membrane currents (Vh=−70 mV) were recorded from the cRNA-injected oocytes using the two-electrode voltage clamp technique (Axoclamp 2B amplifier). Voltage recording ([…] tip resistance) and current-recording microelectrodes (5 MΩ tip resistance) were filled with 3.0 M KCl. Oocytes were placed in an electrophysiological chamber continuously superfused with Ringer's solution (5 mL/min, at 18° C.) containing 110 mM NaCl, 2.5 mM KCl, 5 mM HEPES and 1.8 mM BaCl2, with pH adjusted to 7.5. To induce an evoked current, 2 μM ATP was superfused for 60 to 120 seconds and then washed for 20 min. For data analysis, the ATP-evoked current was normalized at pH 7.5. The compounds were introduced to the fixed oocytes 20 minutes prior to ATP exposure in the electrophysiological chamber. IC50 values (the concentration of the compound required to inhibit the ATP response by 50%) were determined by Hill plots designed using the Chemical Formula: log(I/Imax−1), where I is the current evoked by ATP in the presence of an antagonist. Data are presented as mean±SEM (n≥3) from different batches of oocytes.
as §1

[3] = biological target: T3, human P2X3 receptor (hP2X3) (Homo sapiens, UniProt P56373); experiment: Two-electrode voltage clamp assay, recombinant hP2X3 receptor in Xenopus oocytes; conditions: for IC50: 2 μM ATP-evoked current, mean±SEM n≥3 (footnote d); for IC50 / inhibition at 1 µM: Xenopus oocytes; for selectivity for hP2X3R to mP2X1R: hP2X3R versus mP2X1R; for inhibition at 1 µM: 1 μM compound, 2 μM ATP, mean±SEM n≥3 (footnote b), read-out: hP2X3 % inhibitory effect at 1 μM
T3 construct: expressed in transfected cells; host or cells: Xenopus oocytes (cRNA microinjection)
T3 sequence (P56373 1-397): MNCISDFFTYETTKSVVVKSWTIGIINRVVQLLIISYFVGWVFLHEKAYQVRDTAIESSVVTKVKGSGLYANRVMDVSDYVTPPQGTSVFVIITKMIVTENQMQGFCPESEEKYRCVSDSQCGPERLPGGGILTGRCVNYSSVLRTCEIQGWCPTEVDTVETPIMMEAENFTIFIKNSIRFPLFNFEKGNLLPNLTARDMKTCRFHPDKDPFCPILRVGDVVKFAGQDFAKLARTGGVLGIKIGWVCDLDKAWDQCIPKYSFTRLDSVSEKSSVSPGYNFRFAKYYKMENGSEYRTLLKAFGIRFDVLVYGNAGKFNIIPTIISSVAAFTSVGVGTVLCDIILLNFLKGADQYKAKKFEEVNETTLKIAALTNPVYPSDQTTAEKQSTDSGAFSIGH
Protocol: as §2, §3, §1

SMILES	IC50 [3] [nM]	hP2X7 % inhibition of ethidium bromide accumulation [1]	inhibition at 10 µM ([2]; 2 μM ATP) [%]	mP2X1 % inhibitory effect at 10 μM ([2]; 2 μM ATP)	also measured
O=C(NCC12CC3CC(CC(C3)C1)C2)c1cc(CCCNCCCO)ccc1Cl [AZD9056, reference compound]	–	–	–	–	IC50 ([1]; ethidium accumulation, read-out: hP2X7 (reference compound, value in nM)): 0.23 ± 0.11 nM
COc1ccc(CCc2ncc(O)c(C(=O)O)c2C(=O)O)cc1 [Compound 13a, 5-Hydroxy-2-(4-methoxyphenethyl)pyridine-3,4-dicarboxylic acid]	561 ± 99	Inactive	–	–	IC50 ([2]; 2 μM ATP-evoked current, mean±SEM n≥3 (footnote d), read-out: mP2X1 IC50): 236000 ± 78000 pM; selectivity for hP2X3R to mP2X1R [3]: non-selective
COc1ccc(CCc2nc(C)c(O)c(C(=O)O)c2C(=O)O)cc1 [Compound 13b, 5-Hydroxy-2-(4-methoxyphenethyl)-6-methylpyridine-3,4-dicarboxylic acid]	–	Inactive	–	–	selectivity for hP2X3R to mP2X1R [3]: non-selective
CCc1nc(CCc2ccc(OC)cc2)c(C(=O)O)c(C(=O)O)c1O [Compound 13c, 6-Ethyl-5-hydroxy-2-(4-methoxyphenethyl)pyridine-3,4-dicarboxylic acid]	550 ± 93	inactive	48.1 ± 8.8	–	–
CCCCc1nc(CCc2ccc(OC)cc2)c(C(=O)O)c(C(=O)O)c1O [Compound 13e, 6-Butyl-5-hydroxy-2-(4-methoxyphenethyl)pyridine-3,4-dicarboxylic acid]	95	inactive	41.9 ± 9.1	–	selectivity for hP2X3R to mP2X1R [3]: about 100 fold
COc1ccc(CCc2nc(C(C)C)c(O)c(C(=O)O)c2C(=O)O)cc1 [Compound 13f, 5-Hydroxy-6-isopropyl-2-(4-methoxyphenethyl)pyridine-3,4-dicarboxylic acid]	466	inactive	37.3 ± 8.2	–	–
COc1ccc(CCc2nc(CC(C)C)c(O)c(C(=O)O)c2C(=O)O)cc1 [Compound 13g, 5-Hydroxy-6-isobutyl-2-(4-methoxyphenethyl)pyridine-3,4-dicarboxylic acid]	–	inactive	23.4 ± 0.8	–	inhibition at 1 µM [3]: 32%
COc1ccc(CCc2nc(Cc3ccccc3)c(O)c(C(=O)O)c2C(=O)O)cc1 [Compound 13h, 6-Benzyl-5-hydroxy-2-(4-methoxyphenethyl)pyridine-3,4-dicarboxylic acid]	751 ± 83	Inactive	–	Inactive^c	–
COc1ccc(CCc2nc(CCc3ccccc3)c(O)c(C(=O)O)c2C(=O)O)cc1 [Compound 13i, 5-Hydroxy-2-(4-methoxyphenethyl)-6-phenethylpyridine-3,4-dicarboxylic acid]	742 ± 73	inactive	–	Inactive^c	–
COc1ccc(CCc2nc(C(=O)O)c(O)c(C(=O)O)c2C(=O)O)cc1 [Compound 13j, 3-Hydroxy-6-(4-methoxyphenethyl)pyridine-2,4,5-tricarboxylic acid]	319 ± 81	Inactive	36.7 ± 2.8	–	–
COc1ccc(CCc2nc(CCSC)c(O)c(C(=O)O)c2C(=O)O)cc1 [Compound 13k, 5-Hydroxy-2-(4-methoxyphenethyl)-6-(2-(methylthio)ethyl)pyridine-3,4-dicarboxylic acid]	287 ± 87	inactive	–	Inactive^c	–
COc1ccc(CCc2nc(CCS(C)(=O)=O)c(O)c(C(=O)O)c2C(=O)O)cc1 [Compound 13l, 5-Hydroxy-2-(4-methoxyphenethyl)-6-(2-(methylsulfonyl)ethyl)pyridine-3,4-dicarboxylic acid]	721 ± 96	Inactive	–	Inactive^c	–
COc1ccc(CCc2nc(C)c(O)c(C#N)c2C(=O)O)cc1 [Compound 16, 4-Cyano-5-hydroxy-2-(4-methoxyphenethyl)-6-methylnicotinic acid]	–	Inactive	–	Inactive^c	inhibition at 1 µM [3]: 33.3%
CCCc1nc(Cc2cccc(Oc3ccccc3)c2)c(C)c(CCC(=O)O)c1O [Compound 37, 3-(3-Hydroxy-5-methyl-6-(3-phenoxybenzyl)-2-propylpyridin-4-yl)propanoic acid]	–	inactive	–	inactive^c	–
O=C(Nc1cc(C(=O)Nc2ccc(S(=O)(=O)O)cc2S(=O)(=O)O)cc(C(=O)Nc2ccc(S(=O)(=O)O)cc2S(=O)(=O)O)c1)Nc1cc(C(=O)Nc2ccc(S(=O)(=O)O)cc2S(=O)(=O)O)cc(C(=O)Nc2ccc(S(=O)(=O)O)cc2S(=O)(=O)O)c1 [NF-449, reference compound]	–	–	–	–	IC50 ([2]; 2 μM ATP, read-out: mP2X1 (positive control, value in pM)): 307 ± 93 pM
